Values quoted from earlier work, collected in patent publication US20230109626A1 (priority 2020, published 2023).

Settings: for solubility in water: at 20° C.

SMILES	solubility (temperature not given)	solubility in water [mg/100 mL]
[H]/N=C(\N/C(=N/[H])NCCCCCCNC(=N)NC(=N)Nc1ccc(Cl)cc1)Nc1ccc(Cl)cc1 [Chlorhexidine]	about 80 mg/100 mL	80
N=C(NCCCCCCNC(=N)NC(=N)Nc1ccc(Cl)cc1)NC(=N)Nc1ccc(Cl)cc1.O=C(O)[C@H](O)[C@@H](O)[C@H](O)[C@H](O)CO.O=C(O)[C@H](O)[C@@H](O)[C@H](O)[C@H](O)CO [chlorhexidine gluconate]		≥ 2100
